From patent publication US12122776B2, “Tetracyclic compounds and uses thereof” (Gilead Sciences, Inc., priority 2020, dated 2024) come the findings set out here.

Where two headings read alike, the source gives them in different places.

What all share (assay type): cell-based
One series relates to HIV-1 (IIIB). The experiment in a line: Antiviral assay in MT-4 cells. Particulars: Human immunodeficiency virus 1, MT4, 120 h; replication of HIV-1 (IIIB) in MT-4 cells, 5 days incubation, Cell Titer Glo. On the procedure:
Example 24: HIV MT-4 Antiviral and Cytotoxicity Assay
Antiviral Assay in MT-4 Cells
Compounds were tested in a high-throughput 384-well assay format for their ability to inhibit the replication of HIV-1 (IIIB) in MT-4 cells. Compounds were serially diluted (1:3) in DMSO on 384-well polypropylene plates and further diluted 200-fold into complete RPMI media (10% FBS, 1% P/S) using the Biotek Micro Flow and Labcyte ECHO acoustic dispenser. Each plate contained up to 8 test compounds, with negative (No Drug Control) and 5 μM AZT positive controls. MT-4 cells were pre-infected with 10 μL of either RPMI (mock-infected) or a fresh 1:250 dilution of HIV-1 IIIB concentrated virus stock. Infected and uninfected MT-4 cells were further diluted in complete RPMI media and added to each plate using a Micro Flow dispenser. After 5 days incubation in a humidified and temperature controlled incubator (37° C.), Cell Titer Glo (Promega) was added to the assay plates and chemiluminescence read using an Envision plate-reader. EC50 values were defined as the compound concentration that causes a 50% decrease in luminescence signal, and were calculated using a sigmoidal dose-response model to generate curve fits.
Background: In ATP-based viability assays light output follows the ATP content of the culture.

Another series relates to pLai RLuc reporter virus. The experiment in a line: HIV MT-4 serum shift antiviral reporter assay. Particulars: Human immunodeficiency virus 1, MT4, 72 h. On the procedure: Example 25: HIV MT-4 Serum Shift Antiviral Reporter Assay
To quantify the amount of protein binding to human serum, compounds were serially diluted (1:3) in DMSO and acoustically transferred onto 384-well assay plates via a Labcyte ECHO robot. Each plate contained up to 8 test compounds, including negative and positive controls, (DMSO, 5 μM AZT respectively). Assay plates were prepared in duplicate, and tested in either CCM (cell culture media) or HS/CCM (human serum/cell culture media). MT-4 cells were first pre-infected with pLai RLuc reporter virus for 2 h at 37° C., then further diluted in either CCM (RPMI media, 10% FBS, 1% P/S) or HS/CCM (RPMI media, 10% FBS, 50% HS, 1% P/S), and subsequently added to each plate using a Biotek Micro Flow dispenser. After a 72-h incubation in a humidified and temperature controlled incubator (37° C.), Renilla Glo (Promega) was added to all assay plates and chemiluminescence read using an Envision plate-reader. EC50 values were defined as the compound concentration that causes a 50% decrease in luminescence signal, and were calculated using a sigmoidal dose-response model to generate curve fits. To determine the amount of protein binding, EC50 fold shifts (or EC50 shifts) were calculated by dividing EC50 (HS/CCM)/EC50 (CCM).

Series [1] can be described thus: Cytotoxicity assay in MT-4 cells. Particulars: human; uninfected MT-4 cells, 5 days incubation, Cell Titer Glo. On the procedure:
Cytotoxicity Assay in MT-4 Cells Assays were performed as above except uninfected MT-4 cells were added to each well containing test compound. In addition, 10 μM puromycin was added to the last column of each assay plate to assess a base level of cytotoxicity.

Setting [2] is: read-out: Antiviral Serum Shift RLuc 50% HS.
The mark [3] stands for this setting: read-out: Antiviral Serum Shift RLuc CCM.

In the series on HIV-1 (IIIB), `O=C(NCc1c(F)cc(F)cc1F)c1c2n3c(c(O)c1=O)C(=O)N1CCCC[C@@]3(C[C@H]2F)C1` (single isomer, unassigned) [Compound 8-2] had an EC50 of 2.29 nM.
For the compound `CO[C@@H]1C[C@@]23CCCCN(C2)C(=O)c2c(O)c(=O)c(C(=O)NCc4c(F)cc(F)cc4F)c1n23` (single isomer, unassigned) [Compound 12-1], the EC50 was found to be 16.9 nM with pLai RLuc reporter virus (setting [2]), 0.77 nM in the series with pLai RLuc reporter virus (setting [3]) and 1.54 nM in the series on HIV-1 (IIIB). Half-maximal cytotoxicity in series [1] (CC50 at 5 days) was put at 9690 nM.
For the compound `O=C(NCc1c(F)cc(F)cc1F)c1c2n3c(c(O)c1=O)C(=O)N1CCCC[C@]3(C[C@@H]2O)C1` (single isomer, unassigned) [Compound 9-3], the EC50 stood at 28.5 nM in the series with pLai RLuc reporter virus (setting [2]), 0.384 nM in the series with pLai RLuc reporter virus (setting [3]) and 1.06 nM with HIV-1 (IIIB). Besides, in series [1], it took 6310 nM to reach half-maximal cytotoxicity (CC50 at 5 days).
The corresponding values for `CO[C@H]1C[C@]23CCCCN(C2)C(=O)c2c(O)c(=O)c(C(=O)NCc4c(F)cc(F)cc4F)c1n23` (single isomer, unassigned) [Compound 12-2] are 98.4 nM, 1.14 nM, 3.26 nM and 11100 nM.
In the same order, the values of `C[C@]1(O)C[C@@]23CCCCN(C2)C(=O)c2c(O)c(=O)c(C(=O)NCc4c(F)cc(F)cc4F)c1n23` (single isomer, unassigned) [Compound 15] are 51 nM, 0.29 nM, 1.2 nM and 3730 nM.
Regarding `CO[C@@H]1C[C@]23CCCCN(C2)C(=O)c2c(O)c(=O)c(C(=O)NCc4c(F)cc(F)cc4F)c1n23` (single isomer, unassigned) [Compound 12-4], the EC50 in the series with HIV-1 (IIIB) worked out at 7.33 nM.
With `O=C(NCc1c(F)cc(F)cc1F)c1c2n3c(c(O)c1=O)C(=O)N1CCCC[C@@]3(C1)[C@@H](O)[C@@H]2O` (single isomer, unassigned) [Compound 11-3], the results for the EC50 in the series on pLai RLuc reporter virus (setting [2]), in the series with pLai RLuc reporter virus (setting [3]) and with HIV-1 (IIIB) were 7.57 nM, 4.08 nM and 5.28 nM, respectively. Also, the CC50 (in general, the concentration giving 50% cytotoxicity) at 5 days in series [1] was 50000 nM.
As for `O=C(NCc1c(F)cc(F)cc1F)c1c2n3c(c(O)c1=O)C(=O)N1CCCC[C@]3(C[C@@H]2F)C1` (single isomer, unassigned) [Compound 8-1], the results for the EC50 in the series with pLai RLuc reporter virus (setting [2]), with pLai RLuc reporter virus (setting [3]) and with HIV-1 (IIIB) were 25.4 nM, 0.429 nM and 0.86 nM, respectively. The compound also displayed a CC50 at 5 days in series [1] of 7380 nM.
Regarding `CO[C@H]1C[C@@]23CCCCN(C2)C(=O)c2c(O)c(=O)c(C(=O)NCc4c(F)cc(F)cc4F)c1n23` (single isomer, unassigned) [Compound 12-3], in the series with HIV-1 (IIIB), the EC50 was 4.47 nM. Moreover, in series [1], the CC50 at 5 days was 14800 nM.
`CO[C@H]1C=C[C@H](C)N2C[C@]13CC(O)c1c(C(=O)NCc4ccc(F)cc4F)c(=O)c(O)c(n13)C2=O` (stereo partly drawn) [Compound 19-3, (1R,11S,14S)—N-[(2.4 difluorophenyl)methyl]-3.7 dihydroxy-14-methoxy-11-methyl-6,9-dioxo-10,15-diazatetracyclo[6.6.1.11,10.04,15]hexadeca-4,7,12-triene-5-carboxamide] registered an EC50 in the series with HIV-1 (IIIB) of 1.2 nM. Moreover, in series [1], the half-maximal cytotoxic concentration (CC50) at 5 days was determined as 6950 nM.
For `O=C(NCc1c(F)cc(F)cc1F)c1c2n3c(c(O)c1=O)C(=O)N1CCCC[C@]3(CC2)C1` [Compound 2, (6aS)-11-hydroxy-1,10-dioxo-N-(2,4,6-trifluorobenzyl)-1,3,4,5,6,7,8,10-octahydro-2,6a-methano[1,4]diazonino[9,1,2-cd]indolizine-9-carboxamide], the values for the EC50 in the series with pLai RLuc reporter virus (setting [2]), in the series with pLai RLuc reporter virus (setting [3]) and in the series on HIV-1 (IIIB) were 20.8 nM, 0.351 nM and 2.26 nM, respectively. In addition, the CC50 at 5 days in series [1] was found to be 6160 nM.
The corresponding values for `O=C(NCc1ccc(F)cc1F)c1c2n3c(c(O)c1=O)C(=O)N1CCCC[C@@]3(C[C@H]2O)C1` (single isomer, unassigned) [Compound 10-2] are 21.1 nM, 0.417 nM, 1.05 nM and 4120 nM.
Consider `O=C(NCc1cccc(Cl)c1F)c1c2n3c(c(O)c1=O)C(=O)N1CCCC[C@]3(CC2)C1` [Compound 6, (6aS)—N-(3-chloro-2-fluorobenzyl)-11-hydroxy-1,10-dioxo-1,3,4,5,6,7,8,10-octahydro-2,6a-methano[1,4]diazonino[9,1,2-cd]indolizine-9-carboxamide], for which, in the series with HIV-1 (IIIB), the EC50 was determined as 2.6 nM. This compound yielded a CC50 at 5 days in series [1] of 3680 nM.
`CO[C@@H]1c2c(C(=O)NCc3c(F)cc(F)cc3F)c(=O)c(O)c3n2[C@@]2(CCCCN(C2)C3=O)[C@H]1OC` (single isomer, unassigned) [Compound 13-3] had an EC50 with HIV-1 (IIIB) of 9.5 nM. Besides, the half-maximal cytotoxic concentration (CC50) at 5 days in series [1] worked out at 10100 nM.
Take `CO[C@H]1CC[C@H](C)N2C[C@]13CCc1c(C(=O)NCc4ccc(F)cc4F)c(=O)c(O)c(n13)C2=O` [Compound 19-1, (1R,11S,14S)—N-[(2.4 difluorophenyl)methyl]-7-hydroxy-14-methoxy-11-methyl-6,9-dioxo-10,15-diazatetracyclo[6.6.1.11,10.04,15]hexadeca-4.7 diene-5-carboxamide]: in the series on HIV-1 (IIIB), the EC50 was found to be 2.1 nM. In series [1], the CC50 at 5 days is 4600 nM.
In the same order, the values of `C[C@H]1CC[C@H](O)[C@]23CCc4c(C(=O)NCc5c(F)cc(F)cc5F)c(=O)c(O)c(n42)C(=O)N1C3` [Compound 23-1, (3S,6S,6aR)-6,11-dihydroxy-3-methyl-1,10-dioxo-N-(2,4,6-trifluorobenzyl)-1,3,4,5,6,7,8,10-octahydro-2,6a-methano[1,4]diazonino[9,1,2-cd]indolizine-9-carboxamide] are 5.7 nM and 26600 nM.
On to `O=C(NCc1c(F)cc(F)cc1F)c1c2n3c(c(O)c1=O)C(=O)N1CCCC[C@]3(CC2CO)C1` (single isomer, unassigned) [Compound 16], for which the EC50 in the series on HIV-1 (IIIB) was found to be 2.8 nM. The same compound displayed a half-maximal cytotoxic concentration (CC50) at 5 days in series [1] of 7450 nM.
In the same order, the values of `CO[C@@H]1c2c(C(=O)NCc3c(F)cc(F)cc3F)c(=O)c(O)c3n2[C@]2(CCCCN(C2)C3=O)[C@H]1OC` (single isomer, unassigned) [Compound 13-2] are 1.1 nM and 24700 nM.
The corresponding values for `CO[C@@H]1[C@@H](OC)c2c(C(=O)NCc3c(F)cc(F)cc3F)c(=O)c(O)c3n2[C@]12CCCCN(C2)C3=O` (single isomer, unassigned) [Compound 13-4] are 10.7 nM and 30700 nM.
In the series on HIV-1 (IIIB), `CO[C@@H]1[C@@H](OC)c2c(C(=O)NCc3c(F)cc(F)cc3F)c(=O)c(O)c3n2[C@@]12CCCCN(C2)C3=O` (single isomer, unassigned) [Compound 13-1] displayed an EC50 of 1.7 nM. In series [1], the half-maximal cytotoxic concentration (CC50) at 5 days came out at 27800 nM.
In turn, `CO[C@H]1C=C[C@H](C)N2C[C@]13CCc1c(C(=O)NCc4c(F)cc(F)cc4F)c(=O)c(O)c(n13)C2=O` [Compound 22, (3S,6S,6aR)-11-hydroxy-6-methoxy-3-methyl-1,10-dioxo-N-(2,4,6-trifluorobenzyl)-1,3,6,7,8,10-hexahydro-2,6a-methano[1,4]diazonino[9,1,2-cd]indolizine-9-carboxamide] had an EC50 in the series on HIV-1 (IIIB) of 1.8 nM. It took 1940 nM to reach half-maximal cytotoxicity in series [1] (CC50 at 5 days).
Take `O=C(NCc1c(F)cc(F)cc1F)c1c2n3c(c(O)c1=O)C(=O)N1CCCC[C@]3(C1)[C@H](O)[C@H]2O` (single isomer, unassigned) [Compound 11-2]: the EC50 in the series with pLai RLuc reporter virus (setting [2]) worked out at 48.4 nM; in the series on pLai RLuc reporter virus (setting [3]), 1.52 nM.
In the series on HIV-1 (IIIB), `CO[C@H]1C=C[C@H](C)N2C[C@]13CCc1c(C(=O)NCc4ccc(F)cc4F)c(=O)c(O)c(n13)C2=O` [Compound 19-2, (1R,11S,14S)—N-[(2.4 difluorophenyl)methyl]-7-hydroxy-14-methoxy-11-methyl-6,9-dioxo-10,15-diazatetracyclo[6.6.1.11,10.04,15]hexadeca-4,7,12-triene-5-carboxamide] yielded an EC50 of 0.86 nM. For the same compound, it took 1870 nM to reach half-maximal cytotoxicity in series [1] (CC50 at 5 days).
